According to the NIST ThermoML archive (doi:10.1016/j.fluid.2013.09.036):

Key:
[1] = xn = mol fraction of the nth substance listed; details: Liquid, Other PVT measurement
[2] = 101.33 kPa, Liquid; for mass density: Vibrating tube method

CCC[N+]1(C)CCCC1.O=S(=O)([N-]S(=O)(=O)C(F)(F)F)C(F)(F)F + O=C=O
[1]
Details	molar volume [m3/mol]
298.15 K, 525.5 kPa, x2 = 0.134	0.0002522
298.15 K, 1123.1 kPa, x2 = 0.255	0.0002222
298.15 K, 1476.5 kPa, x2 = 0.316	0.0002071
298.15 K, 1913.1 kPa, x2 = 0.376	0.0001924
298.15 K, 2237.6 kPa, x2 = 0.418	0.000182
298.15 K, 2800.7 kPa, x2 = 0.478	0.0001674
298.15 K, 3281.6 kPa, x2 = 0.523	0.0001565
298.15 K, 3998.7 kPa, x2 = 0.578	0.0001431
298.15 K, 4567.3 kPa, x2 = 0.616	0.0001339
313.15 K, 567.7 kPa, x2 = 0.113	0.0002606
313.15 K, 1217.5 kPa, x2 = 0.218	0.0002344
313.15 K, 1606.5 kPa, x2 = 0.273	0.0002203
313.15 K, 2083.3 kPa, x2 = 0.327	0.000207
313.15 K, 2445 kPa, x2 = 0.369	0.0001966
313.15 K, 3072.7 kPa, x2 = 0.425	0.0001827
313.15 K, 3613.6 kPa, x2 = 0.468	0.0001718
313.15 K, 4415.1 kPa, x2 = 0.519	0.0001596
313.15 K, 5100.5 kPa, x2 = 0.561	0.000149
333.15 K, 618.4 kPa, x2 = 0.093	0.0002678
333.15 K, 1333.3 kPa, x2 = 0.18	0.0002455
333.15 K, 1767.4 kPa, x2 = 0.229	0.0002327
333.15 K, 2294.9 kPa, x2 = 0.275	0.0002214
333.15 K, 2702.9 kPa, x2 = 0.316	0.0002107
333.15 K, 3411.9 kPa, x2 = 0.368	0.0001978
333.15 K, 4029.9 kPa, x2 = 0.409	0.0001874
333.15 K, 4942.5 kPa, x2 = 0.455	0.0001767
333.15 K, 5777.2 kPa, x2 = 0.501	0.000165

CCC[N+]1(C)CCCC1.O=S(=O)([N-]S(=O)(=O)C(F)(F)F)C(F)(F)F
[2]
Details	electrical conductivity [S/m]	mass density [kg/m3]	viscosity [mPa·s]
278.15 K	0.158	1446.23	169.4
283.15 K	0.206	1441.6	127.2
288.15 K	0.262	1437	97.84
293.15 K	0.327	1432.46	76.89
298.15 K	0.4	1427.91	61.52
303.15 K	0.483	1423.37	49.99
313.15 K	0.675	1414.36	34.45
323.15 K	0.902	1405.44	24.91
333.15 K	1.16	1396.6	18.71
343.15 K	1.46	1387.82	14.51
353.15 K	1.78	1379.12	11.55
363.15 K	–	1370.48	9.398
